In patent publication US10561618B2, “Orally available pharmaceutical formulation suitable for improved management of movement disorders” (Contera Pharma ApS, priority 2012, dated 2020):

How the values were obtained:
[1] = test system: unilaterally 6-OHDA-lesioned rats; assay: 6-OHDA rat model: L-DOPA induced AIMs and drugs screening test; format: in vivo; settings: for L-DOPA induced AIMs: Example II, 30 min before test
[2] = Pharmacokinetic profiling of the fixed dose combination product; format: in vivo; settings: cynomolgus monkeys, oral; for Time of maximum plasma concentration: one buspirone (IR)/zolmitriptan (CR) 10 mg/1 mg tablet (batch 0614/2012), n=4
Description: Four non-naïve male cynomolgus monkeys (3.5 to 7 kg; Hainan Jingang Laboratory Animal Co. Ltd.) were used to evaluate the pharmacokinetics of the fixed dose combination product of the present invention. Animals were individually housed in stainless-steel mesh cages during in-life in accordance with the National Research Council “Guide for the Care and Use of Laboratory Animals” and fed twice daily with 120 g of Certified Monkey Diet daily (Beijing Vital Keao Feed Co., Ltd. Beijing, P. R. China). At test occasion, animals were fed the day before at 3:30 to 4:00 pm and the remaining food removed after approximately 1 to 1.5 hours of feeding (at 5:00 pm). Food was withheld until 4-hour post-dosage. The study was conducted in compliance with the Animal Welfare Act, the Guide for the Care and Use of Laboratory Animals, and the Office of Laboratory Animal Welfare (OLAW).
Each monkey was dosed one buspirone hydrochloride (IR)/zolmitriptan (CR) 10 mg/1 mg combination product (batch 0614/2012) orally using tablet gun, placing one tablet beyond the root of tongue. Subsequently, the animals' throat was massaged to aid passage of the tablet down the esophagus and 5-10 mL drinking water injected into its mouth using a syringe. After administration of drinking water, the animals' jaw was checked to see if the tablet was swallowed.
Blood samples were draw from a peripheral vessel from restrained, non-sedated animals at the following time points: pre-dose, 15, 30, 60 min, 2, 4, 8, 12 and 24 h post-dose into (K2) EDTA-coated tubes. Plasma was obtained from the blood samples by centrifugation (3,000×g for 10 minutes at 2 to 8° C.) within one hour of collection and stored frozen in a freezer at −70° C. until bio-analysis.
Analytes were extracted from plasma by mixing 200 μL 0.1% formic acid (FA) in 50% acetonitrile (ACN)/methanol (MeOH) containing 100 ng/mL Labetalol as internal standard with 50 μL plasma sample, followed by centrifugation (4000 rpm for 20 min).
Subsequently, 100 μL of supernatant was removed and mixed with 150 μL 0.1% FA in 25% MeOH/Water, vortexed 10 min and centrifuged for 10 min at 4000 rpm. Chromatographic separation from other constituents of the sample was achieved by ultra-performance liquid chromatography (Acquity, Waters), followed by tandem mass spectrometry (MS/MS) detection (API 4000, AB Sciex Instruments), injecting 20 μL sample. The analytes were separated by an ACE 5 phenyl (2.1×100 mm ID) column maintained at 40° C., using a gradient of A: 10 mM ammonium acetate in water and solvent B: 0.1% FA in 95% ACN)/water (table 4).
Buspirone, zolmitriptan and labetalol were detected at parent/daughter molecular mass of 386.10/122.20, 288.10/58.20 and 329.20/161.90 m/z, and a collision energy of 41, 25 and 50 eV, respectively. Retention times were 2.3, 1.3 and 2.0 min for buspirone, zolmitriptan and labetalol, respectively. Peak areas correlated linearly (r^2>0.997, 1/x^2 weighting) with buspirone and zolmitriptan concentrations in the range 0.5-1000 ng/mL. Lower limit of quantification (LLOQ) was 0.5 ng/mL for buspirone and zolmitriptan based on a signal-to-noise ratio>10:1.
The PK analysis was performed with non-linear mixed effects modelling using Phoenix NMLE 1.2 (Pharsight Corporation). A one- or two-compartment model with first-order absorption and elimination rate was fitted to the time-concentration profiles. Furthermore, model development included modelling of the data with an absorption lag-time (Tlag). To adequately characterise a potential lag-time, the plasma concentrations<LLOQ (Lower Limit of Quantification) was fixed to ½ of LLOQ (0.25 ng/mL) for the sample just prior to the first quantifiable concentration. Best model fit was evaluated based on basic goodness-of-fit plots, parameter precision, visual predictive check and objective function value. A drop in objective function value of […] for nested models with one added parameter was considered a significant improvement in model fit.

[3] = test system: unilaterally 6-OHDA-lesioned rats; settings: zolmitriptan administered alone; WO2012/048710; cited from earlier work
LID = settings: cited from earlier work
Parkinson's disease = settings: cited from earlier work
[4] = Example VI, buspirone 0.25 or 0.5 mg/kg s.c., tandospirone 1 or 2 mg/kg i.p., 25 min before test
[5] = batch 0614/2012, non-linear mixed effects modelling
[6] = batch 0614/2012, non-linear mixed effects modelling, value (% CV)

## O=C1[C@@H]2[C@@H]3CC[C@@H](C3)[C@@H]2C(=O)N1CCCCN1CCN(c2ncccn2)CC1 [tandospirone, (1R,2R,6S,7S)-4-{4-[4-(pyrimidin-2yl)piperazin-1-yl]butyl}-4-azatricyclo[5.2.1.02,6]decane-3,5-dione]
[1]; tandospirone 1 mg/kg i.p. alone
  L-DOPA induced AIMs: partially and briefly reduce AIMs
[1]; tandospirone 2 mg/kg i.p. alone
  L-DOPA induced AIMs: partially and briefly reduce AIMs
[1]; [4]
  L-DOPA-induced dyskinesia (AIMs): significantly reduced L-DOPA-induced dyskinesia

## CN(C)CCc1c[nH]c2ccc(C[C@H]3COC(=O)N3)cc12 [zolmitriptan, (S)-4-({3-[2-(dimethylamino)ethyl]-1H-indol-5-yl}methyl)-1,3-oxazolidin-2-one]
[2]; batch 0614/2012, LLOQ 0.5 ng/mL
  Time plasma concentration is sustained above limit of quantification: 12 h
[2]; batch 0614/2012, model
  Absorption rate, slower compared to buspirone: 3 fold
[2]; [5]
  V/F IIV (inter-individual variability): 0.1%
[2]; [6]
  tvTlag (absorption lag-time): 0.44 h
  tvV/F (volume of central compartment): 16 (62) L/kg
  tvka (absorption rate): 0.32 (55) h^-1
  tyCL/F (clearance): 7.0 (11) L/h/kg
[2]; batch 0614/2012, non-linear mixed effects modelling, value (% CV), listed as Zolmitriptan
  tvTlag (absorption lag-time): 0.44 (3.8) h
[2]
  Time of maximum plasma concentration: 4 h
[3]
  Inhibition of LID in an animal model for LID: generally fails to inhibit LID

## Fc1ccc(-c2cncc(CNC[C@H]3CCc4ccccc4O3)c2)cc1 [sarizotan, 1-[(2R)-3,4-dihydro-2H-chromen-2-yl]-N-([5-(4-fluorophenyl)pyridin-3-yl]methyl)methanamine]
LID; phase 2A study and open labeled study
  Effect on LID: reduced LID
LID; several large phase 2b studies
  Effect compared to placebo: no significant effects

## O=C1CC2(CCCC2)CC(=O)N1CCCCN1CCN(c2ncccn2)CC1 [buspirone, 8-[4-(4-pyrimidin-2-ylpiperazin-1-yl)butyl]-8-azaspiro[4.5]decane-7,9-dione]
[2]; [5]
  CL/F IIV (inter-individual variability): 37%
  ka IIV (inter-individual variability): 5.4%
[2]; [6]
  tvQ/F (inter-compartmental clearance): 18 (11) L/h/kg
  tvTlag (absorption lag-time): no observable lag-time
  tvV2/F (volume of peripheral compartment): 1259 (29) L/kg
  tvV/F (volume of central compartment): 3.9 (26) L/kg
  tvka (absorption rate): 1.0 (13) h^-1
  tyCL/F (clearance): 13 (124) L/h/kg
[2]
  Time of maximum plasma concentration: around 0.5 h
[1]; Example I, buspirone 0.5 mg/kg i.p. given alone
  L-DOPA-induced dyskinesia (AIMs): only partly reduced AIM
[1]; [4]
  L-DOPA-induced dyskinesia (AIMs): significantly reduced L-DOPA-induced dyskinesia
Parkinson's disease; doses 10-60 mg/day
  Effect on Parkinson's disease or dyskinesia: did not have any effects on Parkinson's disease or dyskinesia
Parkinson's disease; higher doses (100 mg/day)
  Disability ratings: significant worsening of disability ratings
  Effect on dyskinesia: reduced dyskinesia
